From patent US20060069132A1, “Azolecarboxamide herbicides” (priority 2004, published 2006)

Key:
barnyardgrass [1] = assay: Test B pre-/postemergence herbicide test; assay type: in vivo, Echinochloa crus-galli; conditions: 0 = no effect, 100 = complete control, preemergence
Outline: (§1)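 Flooded paddy rice and barnyardgrass were treated at the 2-leaf stage; upland plantings received compound either on sown seed or on 1- to 4-leaf seedlings. All were kept 13–15 days in a greenhouse and scored visually, 0–100, relative to untreated plants.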

Surinam grass = assay: Test B pre-/postemergence herbicide test; assay type: in vivo, Urochloa decumbens; conditions: for Surinam Grass plant response rating: postemergence, scale 0 (no effect) to 100 (complete control)
Outline: (§2)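 Seeds were planted and treated preemergence with compounds formulated in a non-phytotoxic solvent mixture containing surfactant, while plants at the 1- to 4-leaf stage (2 to 18 cm) received postemergence sprays. Flooded paddy plants were grown to the 2-leaf stage. After 13 to 15 days in a greenhouse, injury was visually rated 0–100 against untreated controls.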

cocklebur = assay: Test B pre-/postemergence herbicide test; assay type: in vivo, Xanthium strumarium; conditions: for Cocklebur plant response rating: postemergence, scale 0 (no effect) to 100 (complete control)
Outline: as §1

corn = assay: Test B pre-/postemergence herbicide test; assay type: in vivo, Zea mays; conditions: for Corn plant response rating: postemergence, visual rating, scale 0 (no effect) to 100 (complete control)
Outline: as §2

large crabgrass = assay: Test B pre-/postemergence herbicide test; assay type: in vivo, Digitaria sanguinalis; conditions: for Crabgrass, Large plant response rating: postemergence, scale 0 (no effect) to 100 (complete control)
Outline: as §2

giant foxtail = assay: Test B pre-/postemergence herbicide test; assay type: in vivo, Setaria faberi; conditions: for Foxtail, Giant plant response rating: postemergence, scale 0 (no effect) to 100 (complete control)
Outline: as §2

lambsquarters = assay: Test B pre-/postemergence herbicide test; assay type: in vivo, Chenopodium album; conditions: for Lambsquarters plant response rating: postemergence, scale 0 (no effect) to 100 (complete control)
Outline: as §2

morningglory = assay: Test B pre-/postemergence herbicide test; assay type: in vivo, Ipomoea coccinea; conditions: for Morningglory plant response rating: postemergence, scale 0 (no effect) to 100 (complete control)
Outline: as §1

pigweed = assay: Test B pre-/postemergence herbicide test; assay type: in vivo, Amaranthus retroflexus; conditions: for Pigweed plant response rating: postemergence, scale 0 (no effect) to 100 (complete control)
Outline: as §2

rice [2] = assay: Test B pre-/postemergence herbicide test; assay type: in vivo, Oryza sativa; conditions: 0 = no effect, 100 = complete control, preemergence
Outline: as §2

velvetleaf = assay: Test B pre-/postemergence herbicide test; assay type: in vivo, Abutilon theophrasti; conditions: for Velvetleaf plant response rating: postemergence, scale 0 (no effect) to 100 (complete control)
Outline: as §2

blackgrass = assay: Test B postemergence herbicide test; assay type: in vivo, Alopecurus myosuroides; conditions: postemergence, visual rating, scale 0 (no effect) to 100 (complete control)
Outline: (§3)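 After treating 2-leaf paddy plants or 2–18 cm postemergence plants (1 to 4 leaves) with formulated chemical, researchers kept them in a greenhouse for 13–15 days. Effects were judged visually versus controls: 0 indicates none, 100 total control.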

wheat = assay: Test B postemergence herbicide test; assay type: in vivo, Triticum aestivum; set-up: key to Wheat plant response rating: 0 = no effect, 100 = complete control; conditions: postemergence, visual rating, scale 0 (no effect) to 100 (complete control)
Outline: (§4)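 Visual ratings, 0 (no effect) to 100 (complete control), made versus controls after 13–15 d greenhouse. Paddy plants treated at 2-leaf stage; postemergence plants at 1- to 4-leaf stage, 2–18 cm tall.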

wild oat = assay: Test B postemergence herbicide test; assay type: in vivo, Avena fatua; conditions: postemergence, visual rating, scale 0 (no effect) to 100 (complete control)
Outline: as §4

rice [3] = assay: Test B flooded paddy test; assay type: in vivo, Oryza sativa; conditions: 1000 g ai/ha, scale 0 to 100 (0 no effect, 100 complete control)
Outline: as §4

[4] = tested on: small flower umbrella sedge; assay: Test B flooded paddy test; assay type: in vivo, Cyperus difformis; conditions: 1000 g ai/ha, scale 0 to 100 (0 no effect, 100 complete control)
Outline: as §3

ducksalad = assay: Test B flooded paddy test; assay type: in vivo, Heteranthera limosa; conditions: 1000 g ai/ha, scale 0 to 100 (0 no effect, 100 complete control)
Outline: as §3

barnyardgrass [5] = assay: Test B flooded paddy test; assay type: in vivo, Echinochloa crus-galli; conditions: 1000 g ai/ha, scale 0 to 100 (0 no effect, 100 complete control)
Outline: as §3

[6] = 125 g ai/ha, 0 = no effect, 100 = complete control, preemergence
[7] = 500 g ai/ha, visual rating, 0 = no effect, 100 = complete control, preemergence

`CCc1cn(C(C)(C)C)nc1C(=O)Nc1cc(C(=O)N(CC)CC)ccn1` [Compound 234] was tested, and the “Barnyardgrass plant response rating (0 to 100 scale)” value (barnyardgrass [1]; 125 g ai/ha) was 0, the “Plant response rating, Barnyardgrass” value (barnyardgrass [1]; 500 g ai/ha, visual rating) was 0 and the “Surinam Grass plant response rating (0 to 100 scale)” value (Surinam grass; [6]) was 0. For the same molecule, the “Plant response rating, Surinam Grass” value (Surinam grass; [7]) was 0, the “Surinam Grass plant response rating” value (Surinam grass; 125 g ai/ha, visual rating) was 0 and the “Surinam Grass plant response rating” value (Surinam grass; 500 g ai/ha, visual rating) was 10. For the same molecule, the “Cocklebur plant response rating (0 to 100 scale)” value (cocklebur; [6]) was 0, the “Plant response rating, Cocklebur” value (cocklebur; [7]) was 0 and the “Cocklebur plant response rating” value (cocklebur; 125 g ai/ha, visual rating) was 10. For the same molecule, the “Cocklebur plant response rating” value (cocklebur; 500 g ai/ha, visual rating) was 20, the “Corn plant response rating (0 to 100 scale)” value (corn; [6]) was 0 and the “Corn plant response rating” value (corn; 125 g ai/ha) was 0. The “Corn plant response rating” value (corn; 500 g ai/ha) was 20, the “Crabgrass, Large plant response rating (0 to 100 scale)” value (large crabgrass; [6]) was 0 and the “Plant response rating, Crabgrass, Large” value (large crabgrass; [7]) was 40. For the same molecule, the “Crabgrass, Large plant response rating” value (large crabgrass; 125 g ai/ha, visual rating) was 10, the “Crabgrass, Large plant response rating” value (large crabgrass; 500 g ai/ha, visual rating) was 20 and the “Foxtail, Giant plant response rating (0 to 100 scale)” value (giant foxtail; [6]) was 0. For the same molecule, the “Plant response rating, Foxtail, Giant” value (giant foxtail; [7]) was 10, the “Foxtail, Giant plant response rating” value (giant foxtail; 125 g ai/ha, visual rating) was 0 and the “Foxtail, Giant plant response rating” value (giant foxtail; 500 g ai/ha, visual rating) was 30. For the same molecule, the “Lambsquarters plant response rating (0 to 100 scale)” value (lambsquarters; [6]) was 0, the “Plant response rating, Lambsquarters” value (lambsquarters; [7]) was 50 and the “Lambsquarters plant response rating” value (lambsquarters; 125 g ai/ha, visual rating) was 20. The “Lambsquarters plant response rating” value (lambsquarters; 500 g ai/ha, visual rating) was 40, the “Morningglory plant response rating (0 to 100 scale)” value (morningglory; [6]) was 0 and the “Plant response rating, Morningglory” value (morningglory; [7]) was 0. The “Morningglory plant response rating” value (morningglory; 125 g ai/ha, visual rating) was 20, the “Morningglory plant response rating” value (morningglory; 500 g ai/ha, visual rating) was 70 and the “Pigweed plant response rating (0 to 100 scale)” value (pigweed; [6]) was 0. For the same molecule, the “Plant response rating, Pigweed” value (pigweed; [7]) was 40, the “Pigweed plant response rating” value (pigweed; 125 g ai/ha, visual rating) was 30 and the “Pigweed plant response rating” value (pigweed; 500 g ai/ha, visual rating) was 30. The “Rice plant response rating (0 to 100 scale)” value (rice [2]; 125 g ai/ha) was 0, the “Plant response rating, Rice” value (rice [2]; 500 g ai/ha, visual rating) was 0 and the “Velvetleaf plant response rating (0 to 100 scale)” value (velvetleaf; [6]) was 0. For the same molecule, the “Plant response rating, Velvetleaf” value (velvetleaf; [7]) was 0, the “Velvetleaf plant response rating” value (velvetleaf; 125 g ai/ha, visual rating) was 20 and the “Velvetleaf plant response rating” value (velvetleaf; 500 g ai/ha, visual rating) was 30. For the same molecule, the “Blackgrass plant response rating” value (blackgrass; 125 g ai/ha) was 0, the “Blackgrass plant response rating” value (blackgrass; 500 g ai/ha) was 0 and the “Wheat plant response rating” value (wheat; 125 g ai/ha) was 0. For the same molecule, the “Wheat plant response rating” value (wheat; 500 g ai/ha) was 10, the “Oat, Wild plant response rating” value (wild oat; 125 g ai/ha) was 20 and the “Oat, Wild plant response rating” value (wild oat; 500 g ai/ha) was 20. For the same molecule, the “Rice plant response rating” value (rice [3]) was 0, the “Sedge, Umbrella plant response rating” value [4] was 0 and the “Ducksalad plant response rating” value (ducksalad) was 0. The “Barnyardgrass plant response rating” value (barnyardgrass [5]) was 0.
